Assay results from patent US20260076970A1, “CANCER TREATMENT USING MTDP INHIBITORS AND PLK1 INHIBITORS” (Cardiff Oncology, Inc., priority 2022, published 2026).
Like-named read-outs stand apart in the source and are kept apart here.

What was measured:
SUM159 xenografts = assay: SUM159 mouse xenograft; assay type: in vivo; settings: at 21 days; onvansertib 120 mg/Kg P.O. day 1 and 2 weekly or paclitaxel 10 mg/Kg I.P. day 1 weekly
[1] = test system: metastatic breast cancer patients; settings: cited from earlier work
[2] = test system: patients with metastatic TNBC; settings: with chemotherapy vs chemotherapy and placebo; tumors strongly positive for PD-L1 (CPS>10); cited from earlier work
[3] = target: panel of 63 kinases other than PLK1; assay: kinase panel selectivity (63 kinases); assay type: biochemical
PLK1 = PLK1 (Homo sapiens, UniProt P53350); assay: biochemical assays, panel of 296 kinases; settings: including other PLK members
CYP1A2 = target: T1, CYP1A2 (Homo sapiens, UniProt P05177); assay: CYP inhibition in human liver microsomes; assay type: in vitro ADME
T1 construct: was investigated using human liver microsomes; from tissue; host or cells: human liver microsomes
T1 sequence (P05177 1-516): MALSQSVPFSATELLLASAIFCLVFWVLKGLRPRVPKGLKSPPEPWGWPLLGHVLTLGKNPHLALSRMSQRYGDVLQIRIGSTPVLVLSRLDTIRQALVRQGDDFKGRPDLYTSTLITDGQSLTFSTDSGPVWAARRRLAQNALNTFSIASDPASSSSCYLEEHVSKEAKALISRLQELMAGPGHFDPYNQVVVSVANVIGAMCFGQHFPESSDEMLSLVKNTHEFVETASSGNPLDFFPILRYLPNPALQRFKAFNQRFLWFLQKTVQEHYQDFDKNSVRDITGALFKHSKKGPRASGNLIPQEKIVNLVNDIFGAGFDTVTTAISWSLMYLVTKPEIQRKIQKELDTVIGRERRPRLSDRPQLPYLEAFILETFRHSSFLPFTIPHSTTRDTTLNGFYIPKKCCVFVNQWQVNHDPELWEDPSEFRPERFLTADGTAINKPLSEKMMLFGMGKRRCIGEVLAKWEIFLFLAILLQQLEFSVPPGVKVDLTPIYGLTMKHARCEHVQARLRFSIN
From the text: (§1) In Table 1, IC50 is shown as mean±SEM (standard error of mean).

[4] = test system: CYP2C8, CYP2C9, CYP2C19, CYP2D6, CYP3A4; assay: CYP inhibition in human liver microsomes, summary over isoforms; assay type: in vitro ADME; settings: range over isoforms
From the text: as §1

AML cell lines = assay: cell proliferation in AML cell lines; assay type: cell-based
[5] = test system: HT29 human colon adenocarcinoma xenografts; assay: HT29 xenograft, combination with irinotecan; assay type: in vivo; settings: in combination with irinotecan
[6] = test system: disseminated model of AML; assay: disseminated model of AML, combination with cytarabine; assay type: in vivo; settings: in combination therapy with cytarabine
[7] = pharmacologic parameters of onvansertib; assay type: in vivo
[8] = concentration for anti-tumoral activity in mice; assay type: in vivo
From the text: as §1

patients with mCRPC = assay: onvansertib plus abiraterone in patients with mCRPC (NCT03414034); assay type: in vivo, human
clinical = settings: human, in vivo, po
patients with AML [9] = settings: intravenously in combination with LDAC; treatment-naïve AML; cited from earlier work
patients with AML [10] = settings: in combination with LDAC; cited from earlier work

PLK1, sequence (P53350 whole entry): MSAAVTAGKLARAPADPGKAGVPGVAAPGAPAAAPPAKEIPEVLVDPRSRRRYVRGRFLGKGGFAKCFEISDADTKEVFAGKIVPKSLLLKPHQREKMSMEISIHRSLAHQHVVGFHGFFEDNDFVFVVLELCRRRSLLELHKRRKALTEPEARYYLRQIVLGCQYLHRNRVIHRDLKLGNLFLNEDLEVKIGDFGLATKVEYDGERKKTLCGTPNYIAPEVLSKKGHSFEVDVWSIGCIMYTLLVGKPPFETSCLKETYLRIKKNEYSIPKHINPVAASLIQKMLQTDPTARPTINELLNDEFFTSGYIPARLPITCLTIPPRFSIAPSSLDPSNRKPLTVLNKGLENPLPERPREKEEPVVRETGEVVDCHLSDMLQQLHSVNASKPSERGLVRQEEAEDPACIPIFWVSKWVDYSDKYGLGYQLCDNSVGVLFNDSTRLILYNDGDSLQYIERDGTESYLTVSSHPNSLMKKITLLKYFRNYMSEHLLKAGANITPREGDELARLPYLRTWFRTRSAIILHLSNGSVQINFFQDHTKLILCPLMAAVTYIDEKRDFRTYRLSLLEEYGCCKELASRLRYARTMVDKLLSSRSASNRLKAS

## CC(=O)O[C@H]1C(=O)[C@@]2(C)[C@H]([C@H](OC(=O)c3ccccc3)[C@]3(O)C[C@H](OC(=O)[C@H](O)[C@@H](NC(=O)c4ccccc4)c4ccccc4)C(C)=C1C3(C)C)[C@]1(OC(C)=O)CO[C@@H]1C[C@@H]2O [paclitaxel, 5β,20-Epoxy-1,2α,4,7β,10β,13α-hexahydroxytax-11-en-9-one 4,10-diacetate 2-benzoate 13-ester with (2R,3S)-N-benzoyl-3-phenylisoserine]
SUM159 xenografts
  tumor growth inhibition, difference compared to controls: −0.337
[1]; 80 mg/m^2 weekly, 212 patients
  Grade 3 anemia: 9%
  Grade 3 or 4 neutropenia: 15%
[1]; 45 assessable patients with prior taxane therapy
  responses: 15.6%
[1]; 131 assessable patients with prior anthracycline therapy
  responses: 17.6%
[1]; 177 assessable patients
  overall response rate: 21.5%
[1]; assessable patients
  median time to progression: 142 days
[1]; in vivo
  grade 3 neuropathy: 9%
  grade 4 neuropathy: no patient
  median number of courses of therapy until development of grade 2 or 3 neuropathy: five
[1]; no prior chemotherapy for metastatic disease
  median time to progression: 174 days
[1]; one prior regimen
  median time to progression: 140 days
[1]; two prior regimens
  median time to progression: 85 days

## Pembrolizumab: a monoclonal antibody directed against the PD-1 receptor
[2]
  reduction of the risk of death: 27%

## CN1CCN(c2ccc(OC(F)(F)F)c(Nc3ncc4c(n3)-c3c(c(C(N)=O)nn3CCO)CC4)c2)CC1 [onvansertib, 1-(2-hydroxyethyl)-8-{[5-(4-methylpiperazin-1-yl)-2-(trifluoromethoxy)phenyl]amino}-4,5-dihydro-1H-pyrazolo[4,3-h]quinazoline-3-carboxamide]
[3]
  IC50: > 0.5 µM
PLK1
  specificity for PLK1 among a panel of 296 kinases: high specificity
CYP1A2
  inhibitory effects against CYP1A2: No significant inhibitory effects
[4]
  IC50: 20 to 66 µM
AML cell lines
  inhibition of cell proliferation: nanomolar concentrations
[5]
  tumor regression compared to each agent alone: enhanced tumor regression
[6]
  survival of animals: prolonged survival
[7]; in vivo
  half-life: 24 h
[7]; rodent and nonrodent species
  oral bioavailability: good oral bioavailability
[8]
  concentrations relevant to achieve significant anti-tumoral activity: ~1 µM
Patients with mCRPC; 12 mg/m^2, 14+7 regimen with abiraterone, 5 evaluable
  evaluable patients who met the primary efficacy endpoint: 60%
Patients with mCRPC; 12 mg/m^2 QD 14+7 regimen with abiraterone QD, 9 patients
  hematological toxicities reported: no Grade 2 or higher hematological toxicities
Patients with mCRPC; 18 mg/m^2, 5+9 regimen, 10 evaluable
  evaluable patients who met the primary efficacy endpoint: 30%
SUM159 xenografts
  tumor growth inhibition, difference compared to controls: −0.406
clinical
  half-life: 20 to 30 h

## CC[C@@H]1C(=O)N(C)c2cnc(Nc3ccc(C(=O)N[C@H]4CC[C@H](N5CCN(CC6CC6)CC5)CC4)cc3OC)nc2N1C(C)C [volasertib]
Patients with AML [9]
  OS compared with LDAC alone: significant increase in OS
Patients with AML [10]
  benefit of the combination: no benefit
  risk of severe infections: increased risk of severe infections
